The record followed here is PMC6940912, “Novel Drug-Like Somatostatin Receptor 4 Agonists are Potential Analgesics for Neuropathic Pain” (International Journal of Molecular Sciences, 2019).

Data set [1] deals with Male NMRI mice. Kind of data set: Partial sciatic nerve ligation-induced chronic traumatic neuropathic mechanical hyperalgesia. It counts as in vivo, mouse. The protocol: After conditioning and two control mechanonociceptive measurements on 2 consecutive days, mice were anaesthetized by the combination of ketamine (100 mg/kg, i.p.) and xylazine (10 mg/kg, i.p.). Traumatic mononeuropathy was achieved by one-third to one-half part ligation of the right sciatic nerve. Significant decrease in the mechanical threshold develops 7 days after operation. The mechanonociceptive threshold of the plantar surface of the hindpaws was measured by DPA on the 7th postoperative day. The paw withdrawal threshold was obtained in grams (the maximal value was 10 g; ramp time of 4 s). The compounds (500 µg/kg) or the vehicle were administered orally on day 7, one hour before the repeated measurement. The experiment consisted of separate series on 3 consecutive days, and there were 2–3 vehicle-treated control animals in every series. Therefore, each group contained 8 mice.
(§1) In the sst4 receptor activation assay, all the compounds were dissolved in dimethyl sulfoxide (DMSO) (Szkarabeusz Ltd., Pécs, Hungary). The concentration of the stock solutions was 10 mM and was diluted with distilled water to reach the final concentrations. For the in vivo experiments, 1 mg of the compounds was rubbed dry in a braying mortar, suspended thoroughly in 1 mL 1.25% methylcellulose (MC) (Pharmacy of University of Pécs, Pécs, Hungary) solution and then dissolved in sterile bidistilled water to get a 1000 µg/mL stock solution freshly every experimental day. Most microsuspensions looked opalescent; they were shaken properly, sonicated, and further diluted with 1.25% MC to obtain the 25 µg/mL solution for oral administrations (0.2 mL/10 g body weight for the 500 µg/kg dose). The solutions were shaken and sonicated again directly before use. The vehicle was always 1.25% MC dissolved in sterile bidistilled water.
Male NMRI mice (8–12 weeks old) bred in the Laboratory Animal House of the Department of Pharmacology and Pharmacotherapy of the University of Pecs were kept in standard plastic cages at 24–25 °C, under a 12–12 h light–dark cycle and provided with standard rodent chow and water ad libitum. All experimental procedures complied with the recommendations of the 1998/XXVIII Act of the Hungarian Parliament on Animal Protection and Consideration Decree of Scientific Procedures of Animal Experiments (63/2010) and were approved by the Ethics Committee on Animal Research of Pecs University according to the Ethical Codex of Animal Experiments; license was given (license No. BA1/35/55-50/2017). We made all efforts to minimize the number and suffering of the animals used in this study.

Data set [2] has as its system Male NMRI mice. Kind of data set: RTX-induced acute neurogenic inflammatory thermal allodynia and mechanical hyperalgesia. It counts as in vivo, mouse. The conditions noted are these: oral pretreatment 1 h before intraplantar RTX, printed dose 500 µg/kg. On the procedure: The investigated compounds (500 µg/kg p.o.) or the vehicle were administered orally 1 h before the induction of the acute neurogenic inflammation by intraplantar RTX (Sigma, St. Louis, MO, USA) injection (20 µL, 0.1 µg/mL) into the right hindpaw. RTX evokes an acute neurogenic inflammatory reaction with the development of a rapid thermal allodynia, mainly due to peripheral sensitization mechanisms, and a later developing mechanical hyperalgesia due also to central sensitization. The nociceptive heat threshold was determined before (control) and 10, 20 and 30 min after RTX administration with an increasing-temperature hot plate (IITC Life Science, Woodland Hills, CA, USA). […] The mechanonociceptive threshold was measured with an electronic von Frey device (dynamic plantar aesthesiometer (DPA), Ugo Basile, Comerio, Italy) prior to RTX injection and 30, 60 and 90 min afterwards. The measurement at 30 min was performed immediately after the last heat threshold measurement. The experiment consisted of two separate series on consecutive days and the number of animals in the control group was six per day. Therefore, the control group contained 12 mice, and six and five mice were used in the C1- and C2-treated groups, respectively.
as §1
Male NMRI mice (8–12 weeks old) bred in the Laboratory Animal House of the Department of Pharmacology and Pharmacotherapy of the University of Pecs were kept in standard plastic cages at 24–25 °C, under a 12–12 h light–dark cycle and provided with standard rodent chow and water ad libitum. […]

The target of data set [3] is T1, CB1 (Homo sapiens, UniProt P21554).
T1 construct: Eurofins Cerep (contract assay)
T1 sequence (P21554 whole entry): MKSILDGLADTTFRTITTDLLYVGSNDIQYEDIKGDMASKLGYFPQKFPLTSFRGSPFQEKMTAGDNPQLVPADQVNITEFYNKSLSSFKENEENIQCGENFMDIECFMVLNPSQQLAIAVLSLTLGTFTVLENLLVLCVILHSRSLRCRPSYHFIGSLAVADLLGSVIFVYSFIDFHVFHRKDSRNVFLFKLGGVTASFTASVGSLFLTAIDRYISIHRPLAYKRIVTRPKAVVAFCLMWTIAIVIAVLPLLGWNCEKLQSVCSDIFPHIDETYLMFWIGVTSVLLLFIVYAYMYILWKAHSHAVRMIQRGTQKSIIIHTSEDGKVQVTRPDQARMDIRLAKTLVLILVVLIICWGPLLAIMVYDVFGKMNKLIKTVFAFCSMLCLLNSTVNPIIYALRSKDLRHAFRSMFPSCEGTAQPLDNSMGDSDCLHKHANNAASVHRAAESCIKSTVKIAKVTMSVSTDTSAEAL
Description: Selectivity profile (Eurofins Cerep), cellular agonist/antagonist effect. It counts as cell-based. Particulars: 1 µM. The protocol:
(§2) The evaluation was performed by Eurofins Cerep (France). Compound binding was calculated as a % inhibition of the binding of a radioactively labeled ligand specific for each target. Enzyme inhibition effect was calculated as a % inhibition of control enzyme activity. Cellular agonist effect was calculated as a % of control response to a known reference agonist for each target, and cellular antagonist effect was calculated as a % inhibition of control reference agonist response for each target. In each experiment the respective reference compound was tested concurrently with Compound 1 [71, 72, 73, 74, 75, 76, 77, 78]. See in Supplementary Materials.

The target in data set [4] is T2, Delta (DOP) (Homo sapiens, UniProt P41143).
T2 construct: Eurofins Cerep (contract assay)
T2 sequence (P41143 whole entry): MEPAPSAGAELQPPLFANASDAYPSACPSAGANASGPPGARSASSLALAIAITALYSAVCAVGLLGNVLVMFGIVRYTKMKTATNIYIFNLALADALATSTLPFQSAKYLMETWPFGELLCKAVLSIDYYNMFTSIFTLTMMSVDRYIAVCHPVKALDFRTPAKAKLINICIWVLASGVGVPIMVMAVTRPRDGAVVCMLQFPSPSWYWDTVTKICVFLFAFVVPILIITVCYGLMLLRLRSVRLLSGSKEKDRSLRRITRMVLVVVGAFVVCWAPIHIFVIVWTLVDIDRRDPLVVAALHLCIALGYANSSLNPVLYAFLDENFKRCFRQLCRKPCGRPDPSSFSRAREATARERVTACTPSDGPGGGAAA
Described as above. It counts as cell-based. The conditions noted are these: 1 µM. The protocol: as §2

For data set [5], the target named is T3, D2S (Homo sapiens, UniProt P14416).
T3 construct: Eurofins Cerep (contract assay)
T3 sequence (P14416 1-414 isoform P14416-2): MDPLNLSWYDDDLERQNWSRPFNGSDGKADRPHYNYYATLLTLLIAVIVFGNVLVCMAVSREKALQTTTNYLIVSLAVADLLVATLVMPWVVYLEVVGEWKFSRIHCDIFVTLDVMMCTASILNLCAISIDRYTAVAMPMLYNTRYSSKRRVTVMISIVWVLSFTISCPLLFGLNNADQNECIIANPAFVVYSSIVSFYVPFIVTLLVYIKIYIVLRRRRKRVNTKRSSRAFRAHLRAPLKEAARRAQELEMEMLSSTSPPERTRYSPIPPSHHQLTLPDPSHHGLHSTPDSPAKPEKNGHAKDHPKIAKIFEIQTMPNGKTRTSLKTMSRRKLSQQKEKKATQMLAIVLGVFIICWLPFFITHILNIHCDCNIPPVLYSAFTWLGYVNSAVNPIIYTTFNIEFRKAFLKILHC
The description is as above. The class given is cell-based. The conditions noted are these: 1 µM. The protocol: as §2

Data set [6] addresses T4, CB2 (Homo sapiens, UniProt P34972).
T4 construct: Eurofins Cerep (contract assay)
Described as above. The class given is cell-based. Particulars: 1 µM. On the procedure:
as §2

Data set [7] has as its target T5, Mu (MOP) (Homo sapiens, UniProt P35372).
T5 construct: Eurofins Cerep (contract assay)
The data set is described as above. Particulars: 1 µM. It counts as cell-based. On the procedure:
as §2

The target of data set [8] is T6, D1 (Homo sapiens, UniProt P21728).
T6 construct: Eurofins Cerep (contract assay)
T6 sequence (P21728 whole entry): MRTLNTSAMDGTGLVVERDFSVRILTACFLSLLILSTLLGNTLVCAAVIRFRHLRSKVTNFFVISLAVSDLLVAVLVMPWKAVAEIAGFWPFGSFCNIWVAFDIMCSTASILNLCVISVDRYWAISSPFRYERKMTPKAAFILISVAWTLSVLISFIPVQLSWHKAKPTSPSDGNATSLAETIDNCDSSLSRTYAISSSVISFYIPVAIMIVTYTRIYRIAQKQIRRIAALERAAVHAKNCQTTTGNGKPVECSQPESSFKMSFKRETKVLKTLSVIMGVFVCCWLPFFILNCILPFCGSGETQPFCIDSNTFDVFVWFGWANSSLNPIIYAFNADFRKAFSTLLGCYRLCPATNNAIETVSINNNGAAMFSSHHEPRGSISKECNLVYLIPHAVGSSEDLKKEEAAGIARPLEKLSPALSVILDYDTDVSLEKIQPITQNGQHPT
The data set is described as above. The conditions noted are these: 1 µM. The class given is cell-based. On the procedure: as §2

The target in data set [9] is T7, Kappa (KOP) (Homo sapiens, UniProt P41145).
T7 construct: Eurofins Cerep (contract assay)
T7 sequence (P41145 whole entry): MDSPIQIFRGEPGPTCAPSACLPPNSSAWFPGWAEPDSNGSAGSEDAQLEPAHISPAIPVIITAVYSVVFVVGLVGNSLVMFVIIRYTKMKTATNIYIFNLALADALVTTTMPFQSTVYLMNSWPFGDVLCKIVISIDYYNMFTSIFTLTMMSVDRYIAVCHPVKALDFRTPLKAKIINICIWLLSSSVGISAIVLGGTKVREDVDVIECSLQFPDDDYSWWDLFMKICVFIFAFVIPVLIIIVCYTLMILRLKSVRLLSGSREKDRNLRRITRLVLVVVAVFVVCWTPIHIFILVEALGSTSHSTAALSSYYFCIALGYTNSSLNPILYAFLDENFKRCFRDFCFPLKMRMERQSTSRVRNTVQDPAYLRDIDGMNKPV
The data set is described as above. It counts as cell-based. Particulars: 1 µM. The protocol:
as §2

Data set [10] deals with T8, K+ channel hERG (Homo sapiens, UniProt Q12809).
T8 construct: Eurofins Cerep (contract assay)
T8 sequence (Q12809 whole entry): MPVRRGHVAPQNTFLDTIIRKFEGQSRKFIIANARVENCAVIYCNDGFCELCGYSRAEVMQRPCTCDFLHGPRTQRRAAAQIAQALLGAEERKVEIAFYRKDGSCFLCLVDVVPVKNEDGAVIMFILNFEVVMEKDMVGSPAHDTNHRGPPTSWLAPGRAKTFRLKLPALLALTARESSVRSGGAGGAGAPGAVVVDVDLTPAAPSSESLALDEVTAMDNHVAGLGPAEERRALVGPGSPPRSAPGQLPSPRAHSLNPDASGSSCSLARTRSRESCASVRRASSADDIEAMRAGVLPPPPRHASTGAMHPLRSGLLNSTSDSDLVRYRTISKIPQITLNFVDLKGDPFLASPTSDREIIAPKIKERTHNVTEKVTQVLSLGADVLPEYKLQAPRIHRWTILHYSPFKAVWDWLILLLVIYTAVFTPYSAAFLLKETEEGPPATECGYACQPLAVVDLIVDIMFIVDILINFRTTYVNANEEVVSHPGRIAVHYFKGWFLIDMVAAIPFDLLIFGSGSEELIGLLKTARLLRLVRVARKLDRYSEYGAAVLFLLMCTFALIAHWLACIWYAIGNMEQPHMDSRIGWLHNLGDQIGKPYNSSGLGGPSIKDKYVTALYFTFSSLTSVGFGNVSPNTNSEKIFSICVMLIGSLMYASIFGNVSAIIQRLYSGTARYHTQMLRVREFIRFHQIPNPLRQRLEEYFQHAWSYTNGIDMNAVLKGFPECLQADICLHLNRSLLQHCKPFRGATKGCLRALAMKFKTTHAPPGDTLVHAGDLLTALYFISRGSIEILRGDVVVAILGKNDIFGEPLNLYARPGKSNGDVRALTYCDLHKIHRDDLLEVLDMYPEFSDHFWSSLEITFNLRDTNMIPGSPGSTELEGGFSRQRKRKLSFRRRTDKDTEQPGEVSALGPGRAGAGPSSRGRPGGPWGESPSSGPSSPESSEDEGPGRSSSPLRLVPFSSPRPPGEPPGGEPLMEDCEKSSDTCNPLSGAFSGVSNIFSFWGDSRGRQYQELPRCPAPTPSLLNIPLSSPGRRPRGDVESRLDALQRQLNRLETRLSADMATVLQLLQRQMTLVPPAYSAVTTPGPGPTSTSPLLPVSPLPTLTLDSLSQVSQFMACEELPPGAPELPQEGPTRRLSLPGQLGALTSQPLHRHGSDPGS
Description: Selectivity profile (Eurofins Cerep), radioligand binding. The conditions noted are these: 1 µM, % inhibition of binding of radiolabeled ligand. On the procedure: as §2

In data set [11] the test system is Ca2+ channel. The description is as above. The conditions noted are these: 1 µM, % inhibition of binding of radiolabeled ligand. On the procedure:
as §2

Setting [12] is: day 7 after sciatic nerve ligation, 500 µg/kg oral, 1 h later, n = 8.
Setting [13] is: day 7 after sciatic nerve ligation, pretreatment self-control, n = 8.
Setting [14] is: % inhibition of control reference agonist response.
Where [15] appears, read: % of control response to reference agonist.

T4 sequence (P34972 whole entry): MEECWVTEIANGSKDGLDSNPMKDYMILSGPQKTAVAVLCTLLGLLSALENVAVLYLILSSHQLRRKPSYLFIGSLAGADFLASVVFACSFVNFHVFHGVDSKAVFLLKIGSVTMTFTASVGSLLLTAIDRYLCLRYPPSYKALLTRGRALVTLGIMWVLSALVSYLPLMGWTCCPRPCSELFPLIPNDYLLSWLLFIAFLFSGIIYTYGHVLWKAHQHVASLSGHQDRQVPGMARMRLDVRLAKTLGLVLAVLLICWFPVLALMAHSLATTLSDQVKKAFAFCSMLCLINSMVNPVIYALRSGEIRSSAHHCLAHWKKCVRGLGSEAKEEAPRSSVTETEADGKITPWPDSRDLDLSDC
T5 sequence (P35372 whole entry): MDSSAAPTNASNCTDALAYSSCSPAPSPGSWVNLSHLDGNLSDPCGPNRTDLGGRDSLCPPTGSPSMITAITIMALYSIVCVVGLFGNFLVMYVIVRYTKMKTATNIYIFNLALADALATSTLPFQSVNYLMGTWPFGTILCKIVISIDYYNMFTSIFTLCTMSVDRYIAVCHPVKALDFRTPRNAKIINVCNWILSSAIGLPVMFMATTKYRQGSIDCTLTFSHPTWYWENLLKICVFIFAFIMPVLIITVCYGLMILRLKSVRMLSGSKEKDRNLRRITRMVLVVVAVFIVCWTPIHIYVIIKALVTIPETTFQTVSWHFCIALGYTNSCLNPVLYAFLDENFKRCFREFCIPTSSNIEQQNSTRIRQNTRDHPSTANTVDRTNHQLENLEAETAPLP

Regarding `c1ccc(CCNc2ncnc3c2ccn3Cc2ccccc2)cc1` [Compound 1, (7-Benzyl-7H-pyrrolo[2,3-d]pyrimidin-4-yl)-phenethyl-amine], the “Mechanonociceptive threshold of operated limb, 1 h after treatment” value in data set [1] (setting [12]) was 8.53 ± 0.37 g. In data set [1] (setting [12]), the “Neuropathic mechanical hyperalgesia, 1 h after treatment” value was 9.98% ± 3.92. Also, in [1] (setting [13]), the “Mechanonociceptive threshold of operated limb, before treatment” value amounted to 6.51 ± 0.18 g. The “Neuropathic mechanical hyperalgesia, before treatment” value in data set [1] (setting [13]) was 31.22% ± 2.11. Moreover, the “Anti-hyperalgesic effect on neuropathic mechanical hyperalgesia” value in data set [1] (traumatic nerve injury, single oral 500 µg/kg) is given as “approximately 70%”. Also, the “Effect on acute neurogenic inflammatory heat hyperalgesia” value in data set [2] (at 10 and 30 min) was “significantly decreased”. Besides, in [2] (at 30 min), the “Effect on RTX-induced mechanical hyperalgesia” value is “significantly decreased”. The “Antagonist Effect (%)” value in data set [3] (setting [14]) was −1.5%; in data set [4] (setting [14]), −1.4%; in data set [5] (setting [14]), −11.5%; in data set [6] (setting [14]), 7.7%; in data set [7] (setting [14]) it was 20.2%; in data set [8] (setting [14]), −10%. For the same compound, in data set [9] (setting [14]), the “Antagonist Effect (%)” value came to 23.6%. Also, the “Agonist Effect (%)” value in data set [3] (setting [15]) is given as 30.8%; in data set [4] (setting [15]), −0.3%; in data set [5] (setting [15]), 17.2%; in [6] (setting [15]) it was 58.9%; in data set [7] (setting [15]), 5.5%; in [8] (setting [15]), 3.3%. Moreover, in data set [9] (setting [15]), the “Agonist Effect (%)” value was −1.5%. Moreover, the “Inhibition of radioligand binding (%)” value in data set [10] is listed as 23.6%. Further, the “Inhibition of radioligand binding” value in data set [11] is recorded as 19.4%.
